{"source": "patent US20130196865A1", "about": "“METHOD FOR SELECTING AN IPS CELL” (THE GENERAL HOSPITAL CORPORATION, priority 2010, published 2013)", "key": {"[1]": {"tested_on": "Gtl2^off and Gtl2^on iPSCs, ESCs", "experiment": "Retinoic acid in vitro differentiation of iPSCs and ESCs, qPCR", "format": "cell-based, mouse", "conditions": "for Meg3/Gtl2 and Rian expression during differentiation: RA 5 days", "experimental": "To assess if silencing of Meg3/Gtl2 might be resolved during differentiation, Gtl2^off and Gtl2^on iPSCs as well as ESCs were exposed to the differentiation-stimulating agent retinoic acid (RA) for 5 days. […] The expression of imprinted genes outside of chromosome 12qF1 was not affected (FIG. 3f, bottom, and FIG. 10)\n(§1) cDNA was produced with the First Strand cDNA Synthesis Kit (Roche) using 1 μg of total RNA input. Real-time quantitative PCR reactions were set up in triplicate using 5 μl of cDNA (1:100 dilution) with the Brilliant II SYBR Green QPCR Master Mix (Stratagene) and run on a Mx3000P QPCR System (Stratagene)."}, "[2]": {"tested_on": "Dlk1-Dio3 locus (IG-DMR) methylation in iPSCs", "experiment": "Derivation of iPS cells in the presence of ascorbic acid, DNA methylation at the Dlk1-Dio3 locus", "format": "cell-based, mouse", "experimental": "These are 1) repression of an enzyme called Dnmt3a or 2) addition of ascorbic acid (Vitamin C) to do cell culture media during reprogramming (FIG. 15).\nMEFs with a doxycycline-inducible polycistronic reprogramming cassette in their genome (Stadtfeld, M. et al. A reprogrammable mouse strain from gene-targeted embryonic stem cells. Nature methods 7(1):53-5) were reprogrammed into iPS cells by culture in either doxycycline-containing ESC media or doxycycline-containing ESC media with 50 ng/μl ascorbic acid (Sigma A4544). Doxycline was withdrawn after 10-14 days of culture and emerging iPS cell colonies picked and expanded in regular ESC culture media (without doxycycline, without ascorbic acid). Pluripotency of established iPS cell clones was confirmed by marker gene expression and blastocyst injections.\nGenomic DNA was isolated using the DNeasy Blood and Tissue Kit (Qiagen) and bisulfite converted using the EpiTect Bisulfite Kit (Qiagen) with 100-1000 ng input. Converted DNA was used for PCR to amplify the regulatory IG-DMR region and PCR products were sequenced using the Pyrosequencing PSQ96 HS System (Biotage AB) (Stadtfeld, M. et al. Aberrant silencing of imprinted genes on chromosome 12qF1 in mouse induced pluripotent stem cells)."}, "[3]": {"tested_on": "Meg3/Gtl2 expression in Gtl2^off iPSC clone #45 subclones", "experiment": "Valproic acid treatment of Gtl2off iPSC subclones, Meg3/Gtl2 expression by qPCR", "format": "cell-based, mouse", "experimental": "as §1"}, "[4]": {"tested_on": "chromatin marks at the Gtl2 promoter", "experiment": "Chromatin immunoprecipitation at the Meg3/Gtl2 locus after VA rescue", "format": "cell-based, mouse", "conditions": "VA-rescued clone", "experimental": "20 million iPSCs, ESCs or MEFs were fixed with 1% formaldehyde for 10 minutes at room temperature (RT) and then lysed in 1 ml lysis buffer (50 mM Tris-HCl, pH 8.0, 10 mM EDTA, 1% SDS, protease inhibitors) for 20 minutes on ice. The lysate was split into three tubes and sonicated using Bioruptor for five times five minutes at high intensity, 30 sec on-30 sec off. After 10 minutes centrifugation, the supernatant was precleared for 1 hour at 4° C. with agarose beads preblocked with BSA (1 mg BSA for 10 ml beads) in IP Buffer (50 mMM Tris-HCl, pH8, 150 mM NaCl, 2 mM EDTA, 1% NP-40, 0.5% Sodium Deoxycholate, 0.1% SDS, protease inhibitors). […] of precleared chromatin per reaction diluted in 1 ml IP Buffer in presence of 2 ug antibody were used for each immunoprecipitation reaction according to manufacturer's protocol. The antibodies used for this study were: anti-aCH3 (06-5 99 Millipore), anti-acH4 (06-866, Millipore), anti-dimethyl K4 of H3 (07-030, Millipore), anti-trimethyl K27 of H3 (ab6002, Abcam) and normal rabbit IgG (Millipore). The precipitate was purified using Qiaquick PCR purification kit and was analyzed by qPCR using Brilliant II SYBR Green qPCR Master Mix (600828, Agilent Technologies) using the sequence specific primer sets. Gtl2: 5′-[…]-3′ (FWD) and 5′-[…]3′ (REV) and Pou5f1: 5′-[…]-3′ (FWD) and 5′-[…]-3′ (REV)."}, "[5]": {"tested_on": "development of all-iPSC embryos/pups", "experiment": "4n blastocyst injection of VA-rescued iPSC clone", "format": "in vivo, mouse", "experimental": "2n and 4n blastocyst injections were performed as described before (Eggan, K et al., PNAS USA 98(11):6209 (2001)). Briefly, female BDF1 mice were super-ovulated by intraperitoneal injection of PMS and hCG and mated to BDF1 stud males. Zygotes were isolated from females with a vaginal plug 24 hour after hCG injection. Zygotes for 2n injections were in vitro cultured for 3 days in vitro in KSOM media, blastocysts were identified, injected with ESCs or iPSCs and transferred into pseudopregnant recipient females. For 4n injections, zygotes were cultured overnight until they reached the 2-cell stage, at which point they were electrofused."}}}
{"smiles": "CC1=C(/C=C/C(C)=C/C=C/C(C)=C/C(=O)O)C(C)(C)CCC1", "note": "[retinoic acid, all-trans retinoic acid]", "values": [{"measurement": "Meg3/Gtl2 and Rian expression during differentiation", "setting": "[1]; Gtl2^off iPSCs", "result": "stable silencing"}, {"measurement": "Dlk1 expression upon differentiation", "setting": "[1]; Gtl2^off iPSCs, RA treated", "result": "express high levels"}, {"measurement": "Meg3/Gtl2 and Rian expression during differentiation", "setting": "[1]; Gtl2^on iPSCs and ESCs", "result": "readily upregulated"}, {"measurement": "Pou5f1 expression", "setting": "[1]; all RA-treated clones, 5 days", "result": "downregulation of Pou5f1"}]}
{"smiles": "O=C1O[C@H]([C@@H](O)CO)C(O)=C1O", "note": "[ascorbic acid]", "values": [{"measurement": "abnormal methylation in iPSCs", "setting": "[2]; FIG. 15b", "result": "prevents abnormal methylation"}, {"measurement": "frequency of \"normal iPSCs\"", "setting": "[2]; ascorbic acid added to culture media during reprogramming", "result": "dramatically increased"}]}
{"smiles": "CCCC(CCC)C(=O)O", "note": "[valproic acid]", "values": [{"measurement": "subclones exhibiting increased Meg3/Gtl2 expression", "setting": "[3]; Gtl2^off iPSC subclones treated with VA", "result": "two out of 21"}, {"measurement": "Meg3/Gtl2 expression level of rescued clone", "setting": "[3]; one VA-treated iPSC clone, versus ESCs", "result": "comparable to ESCs"}, {"measurement": "activation-associated chromatin marks at the Meg3/Gtl2 locus", "setting": "[4]", "result": "re-appearance of H3K4 methylation and H3 acetylation"}, {"measurement": "full-term development after 4n blastocyst injection", "setting": "[5]; VA-rescued clone, not seen with parental iPSCs", "result": "supported the development of several full-term pups"}, {"measurement": "phenotype of full-term pups", "setting": "[5]; pups from VA-rescued clone", "result": "severely overgrown, however, and hence non-viable"}]}
